In ChEMBL document CHEMBL1150919, “The inhibition of the reverse transcriptase of HIV-1 by the natural sulfoglycolipids from cyanobacteria: contribution of different moieties to their high potency” (J Nat Prod, 1998):

How the values were obtained:
[1] = molecular target: Human immunodeficiency virus type 1 reverse transcriptase (Human immunodeficiency virus 1, UniProt Q72547); assay: (§1) Inhibition of HIV1 reverse transcriptase activity assessed as residual enzyme activity by poly(rA)n.oligo(dT)12-18-directed incorporation of [3H]dTTP into DNA
[2] = molecular target: Human immunodeficiency virus type 1 reverse transcriptase (Human immunodeficiency virus 1) (UniProt Q72547); assay: as §1
[3] = test system: Human immunodeficiency virus 1; assay: Inhibition of HIV1 RNase H activity assessed as residual enzyme activity by poly(rA)n.oligo(dT)12-18-directed incorporation of [3H]dTTP into DNA at 100 uM relative to control
[4] = Inhibition of HIV2 reverse transcriptase-mediated DNA polymerase activity; set-up: species or system Human immunodeficiency virus 2

Row | SMILES | IC50 [1] | IC90 [2] | Activity [3] | IC50 [4]
1 | CCCCCCCCCCCCCCCC(=O)OC[C@H](CO[C@H]1O[C@H](CS(=O)(=O)O)[C@@H](O)[C@H](O)[C@H]1O)OC(=O)CCCCCCCCCCCCCCC | 0.112 µM | 0.465 µM | 45% | –
2 | O=S(=O)(O)C[C@H]1O[C@H](OC[C@H](O)CO)[C@H](O)[C@@H](O)[C@@H]1O | 75 µM | > 100 µM | – | –
3 | CCCCC/C=C\C/C=C\CCCCCCCC(=O)OC[C@H](CO[C@H]1O[C@H](CS(=O)(=O)O)[C@@H](O)[C@H](OC(=O)CCCCCCCCCCCCCCC)[C@H]1OC(=O)CCCCCCCCCCCCCCC)OC(=O)CCCCCCCCCCCCCCC | 2.95 µM | 14 µM | 100% | –
4 | CCCCCCCC/C=C\CCCCCCCC(=O)OC[C@H](CO[C@H]1O[C@H](CS(=O)(=O)O)[C@@H](O)[C@H](O)[C@H]1O)OC(=O)CCCCCCCCCCCCCCC | 0.024 µM | 0.076 µM | 66% | 0.034 µM
5 | CCCCC/C=C\C/C=C\CCCCCCCC(=O)OC[C@H](CO[C@@H]1O[C@H](CO[C@H]2O[C@H](CO)[C@H](O)[C@H](OC(=O)CCCCCCCCCCCCCCC)[C@H]2O)[C@H](O)[C@H](O)[C@H]1O)OC(=O)CCCCCCCCCCCCCCC | 99.4 µM | > 100 µM | 100% | –
6 | CCCCC/C=C\C/C=C\CCCCCCCC(=O)OC[C@H](CO[C@@H]1O[C@H](CO)[C@H](O)[C@H](O)[C@H]1O)OC(=O)CCCCCCCCCCCCCCC | 38 µM | > 100 µM | 100% | –
7 | CCCCCCCCCCCCCCCC(=O)OC[C@H](CO[C@@H]1O[C@H](CO)[C@H](O)[C@H](O)[C@H]1O)OC(=O)CCCCCCCCCCCCCCC | > 100 µM | > 100 µM | 100% | –
8 | OC[C@@H](O)CO[C@@H]1O[C@H](CO[C@H]2O[C@H](CO)[C@H](O)[C@H](O)[C@H]2O)[C@H](O)[C@H](O)[C@H]1O | > 100 µM | – | – | –
9 | CCCCC/C=C\C/C=C\CCCCCCCC(=O)OC[C@H](CO[C@H]1O[C@H](CS(=O)(=O)O)[C@@H](O)[C@H](O)[C@H]1O)OC(=O)CCCCCCCCCCCCCCC | 0.077 µM | 0.28 µM | 100% | –
10 | OC[C@@H](O)CO[C@@H]1O[C@H](CO)[C@H](O)[C@H](O)[C@H]1O | > 100 µM | – | – | –
11 | OC[C@@H](O)CO[C@H]1O[C@H](CO)[C@@H](O)[C@H](O)[C@H]1O | > 100 µM | – | – | –
12 | CCCCCCCC/C=C\CCCCCCCC(=O)OC[C@H](CO[C@@H]1O[C@H](CO)[C@H](O)[C@H](O)[C@H]1O)OC(=O)CCCCCCCCCCCCCCC | 65 µM | > 100 µM | 100% | –
